# US7977120B2, “Fluorescent sensors for cellular amines” (The Curators of the University of Missouri, priority 2005, dated 2011)
# Assays:
# [1] = Fluorescence titration of quinolone sensors with ornithine; assay type: binding; details: Table 3
# From the text: (§1) The present invention further discloses that the Quinolone-Dimer Sensors III can also provide detection for diamine analytes. The certain exemplary dimer sensors IIIa-g have been probed spectroscopically by UV-vis and fluorescence titration experiments. […] Moreover, by variation of the linker portion of the sensor III, useful selectivities for different length diamino-analytes have been achieved. First, the absorption spectra show trends similar to those observed with the coumarin sensors in which a large red shift in absorption maximum is observed upon addition of diamines to the sensors. […] As shown in FIG. 11(a), when sensor IIIg is titrated with diaminopropane, a 28 nm shift in absorbance is observed consistent with a shift from aldehyde to iminium ion forms. The red shift in absorption has been attributed to the hydrogen bond between the formed iminium ion and the carbonyl group of the chromophore. In fluorescence mode, by exciting the chromophore at 495 nm, a large increase in fluorescence was observed upon titration with the diamine (FIG. 11(b)).
# [2] = Fluorescence titration of quinolone sensors with diaminobutane; assay type: binding; details: Table 3
# From the text: as §1
# [3] = Fluorescence titration of quinolone sensors with butylamine; assay type: binding; details: Table 3
# [4] = Fluorescence titration of quinolone sensors with lysine; assay type: binding; details: Table 3
# From the text: (§2) The present invention further discloses that the Quinolone-Dimer Sensors III can also provide detection for diamine analytes. The certain exemplary dimer sensors IIIa-g have been probed spectroscopically by UV-vis and fluorescence titration experiments. […] Moreover, by variation of the linker portion of the sensor III, useful selectivities for different length diamino-analytes have been achieved.
# (§3) First, the absorption spectra show trends similar to those observed with the coumarin sensors in which a large red shift in absorption maximum is observed upon addition of diamines to the sensors. […] As shown in FIG. 11(a), when sensor IIIg is titrated with diaminopropane, a 28 nm shift in absorbance is observed consistent with a shift from aldehyde to iminium ion forms. The red shift in absorption has been attributed to the hydrogen bond between the formed iminium ion and the carbonyl group of the chromophore. In fluorescence mode, by exciting the chromophore at 495 nm, a large increase in fluorescence was observed upon titration with the diamine (FIG. 11(b)). The fluorescence increase is fitted to a one-site binding isotherm which gave a binding constant of 6700 M^−1 with a maximum fluorescence increase at saturation (Isat/I0) of 6.6-fold.
# (§4) Generally, the dimeric sensors were not as soluble as the monomeric derivatives, so binding studies were performed in 1:1 methanol:buffer (10 mM HEPES, pH=7.4). Water solubilizing groups, such as polyethylene groups, can be provided on the quinolone core in a straightforward synthetic manner. Binding constants and maximum fluorescence changes (Isat/I0) are provided in Table 4 for a few representative guests.
# [5] = UV-vis and fluorescence titration of quinolone sensors with diaminopropane; assay type: binding
# From the text: as §2, §3, §4
# [6] = Fluorescence titration of quinolone sensors with diaminopentane; assay type: binding; details: Table 3
# From the text: as §1
# [7] = Relative affinity of dimer sensors across amine guests; assay type: binding
# From the text: The certain exemplary dimer sensors IIIa-g have been probed spectroscopically by UV-vis and fluorescence titration experiments.
# Water solubilizing groups, such as polyethylene groups, can be provided on the quinolone core in a straightforward synthetic manner. Binding constants and maximum fluorescence changes (Isat/I0) are provided in Table 4 for a few representative guests.
# [8] = test system: norepinephrine-enriched chromaffin cells; experiment: Staining norepinephrine-enriched chromaffin cells with Sensor IIb; assay type: cell-based; details: 0.25 μM, 15 minutes, 37 C, confocal microscopy; compared with epinephrine-enriched cells
# From the text: (§5) The adrenal medulla contains two types of chromaffin cells; those that primarily contain norepinephrine within vesicles and those that primarily contain epinephrine. The two types of cells can be separated upon high-speed centrifugation in a Percoll density gradient. Following centrifugation, the less-dense norepinephrine enriched cells can be collected from the top of the gradient, whereas the denser epinephrine-enriched cells settle to the bottom.
# (§6) Following centrifugation of adrenal medullary cells in a Percoll density gradient, the less-dense norepinephrine enriched cells were collected from the top of the gradient, whereas the denser epinephrine-enriched cells were collected from the bottom of the gradient. Both collections of cells were incubated for 15 minutes at 37 C in 0.25 μM IIb dissolved in cell culture media. The cells were then washed in dye-free media and observed using a confocal microscope at room temperature.
# (§7) Because it is possible to separate chromaffin cells into populations which contain epinephrine and norepinephrine, these cells were used to test sensor 76.
# [9] = test system: epinephrine-enriched chromaffin cells; experiment: Staining epinephrine-enriched chromaffin cells with Sensor IIb; assay type: cell-based; details: identical conditions as norepinephrine cells
# From the text: as §5, §6, §7
# [10] = UV-vis absorption / fluorescence titration of sensor Ia with dopamine; assay type: binding; details: excited at 484 nm, FIG. 8
# From the text: First, the sensors I produce a large chromophoric response when reacting with primary amines under physiological conditions. One exemplary coumarin-based sensor, 2-(((5-(7-(diethylamino)-3-formyl-2-oxo-2H-chromen-4-yl)pentyl)(methyl)amino)methyl)phenylboronic acid, sensor Ia, has been examined spectrophotometrically by titration with dopamine under neutral aqueous conditions in which a reducing agent is included to suppress oxidation of the air-sensitive catechol group.
# The titration conditions are 10 μM sensor Ia with 100 mM Na2S2O3, 50 mM HEPES, 20 mM NaCl, pH=7.0, and at 37° C. […] Therefore, the inventive coumarin-based sensors I are selective for primary amines. See also, Org. Lett. 2004, 6(21), 3727-3730, which is incorporated herein by reference.
# Table 2 also lists the fluorescence response of the sensor Ia as Isat/I0 (the maximum fluorescence change at saturation) for three different excitation wavelengths: 446 nm, 484 nm, and 495 nm. By exciting sensor Ia at the aldehyde absorption maximum (446 nm), a decrease in fluorescence has been observed for all analytes because the sensor shifted from the aldehyde to the iminium ion form. At higher wavelengths of excitation, simple amines give the typical large increase in fluorescence since the iminium ion preferentially absorbs at these wavelengths. […] The fluorescence quenching effect is found to be directly related to the catechol group. […]
smiles,measurement,setting,value
CN(C)c1ccc2c(SCCCCCSc3c(C=O)c(=O)n(Cc4ccccc4)c4cc(N(C)C)ccc34)c(C=O)c(=O)n(Cc3ccccc3)c2c1 [Sensor IIIg],"Isat/I0, Ornithine",[1],20
same,"Ka, Ornithine",[1]; 1:1 methanol-buffer,2400 M⁻¹
same,"Isat/I0, Diaminobutane",[2],27
same,"Ka, Diaminobutane",[2]; 1:1 methanol-buffer,1477 M⁻¹
same,"Ka, Butylamine","[3]; 1:1 methanol-buffer, error ±20%, duplicate titrations",43 M⁻¹
same,"Isat/I0, Butylamine",[3]; maximum change in fluorescence from theoretical fit,38
same,"Isat/I0, Lysine",[4],27
same,"Ka, Lysine",[4]; 1:1 methanol-buffer,2756 M⁻¹
same,"Isat/I0, Diaminopropane",[5]; Table 3,6.6
same,"Ka, Diaminopropane","[5]; Table 3, 1:1 methanol-buffer, excitation 495 nm",6700 M⁻¹
same,maximum fluorescence increase at saturation (Isat/I0),"[5]; excitation 495 nm, one-site binding isotherm, FIG. 11(b)",6.6 fold
same,"Isat/I0, Diaminopentane",[6],18
same,"Ka, Diaminopentane",[6]; 1:1 methanol-buffer,2200 M⁻¹
same,guest selectivity (in words),"[7]; comparison of guests, Tables 3 and 4",the preferred guest in both cases is lysine
same,"extent of the difference, diamines bind better than butyl amine","[7]; ratio of binding constants, Table 3",160 fold
CN(CCCSc1c(C=O)c(=O)n(Cc2ccccc2)c2cc(N(C)C)ccc12)Cc1ccccc1B(O)O [Sensor IIb],staining of norepinephrine-enriched cells,[8],stained brightly
same,staining of epinephrine-containing cells,[9],did not stain well
"CCN(CC)c1ccc2c(CCCCCN(C)Cc3ccccc3B(O)O)c(C=O)c(=O)oc2c1 [Sensor Ia, 2-(((5-(7-(diethylamino)-3-formyl-2-oxo-2H-chromen-4-yl)pentyl)(methyl)amino)methyl)phenylboronic acid]",fluorescence on binding dopamine,[10],quenched upon binding dopamine
